Experimental data reported in patent US12570655B2, “Cysteine covalent modifiers of AKT1 and uses thereof” (Terremoto Biosciences, Inc., priority 2023, dated 2026).

What was measured:
[1] = molecular target: T1, AKT2 (Homo sapiens, UniProt P31751); assay: Live cell AKT2 target engagement by NanoBRET competitive probe displacement; type: cell-based; details: HEK293 cells transfected with kinase-NanoLuciferase fusion, 2 h at 37° C.
T1 construct: expressed in transfected cells; host or cells: HEK293
Outline: (§1)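 Steps: overnight transfection of HEK293 with kinase-NanoLuc plasmids; addition of compound dilutions and tracer (~EC50); 2 h incubation at 37 °C; substrate plus extracellular luciferase inhibitor; luminescence at 460 and 600 nm. IC50 values came from fitting the BRET ratio to a Hill equation.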

[2] = molecular target: T2, AKT1 E17K (Homo sapiens, UniProt P31749, DEL120-128/E133D/E17K/G130S/INS132HT/S129A); assay: Co-crystallization showing covalent complex formation with AKT1 E17K; details: AKT1(DrLink)-E17K-NB41 complex, electron density
T2 construct: Akt1(DrLink)-WT/E17K were gene synthesized and cloned by Gibson assembly into the pFastBac vector; His8 followed by TEV site (MSHHHHHHHHGSENLYFQS) (N); DrLink (replaced PH-kinase interdomain linker, part of the construct's name); made in house; host or cells: Akt1(DrLink): baculovirus/Sf9; NB41: E. coli Rosetta 2(DE3)pLysS
Procedure: (§2) Akt1(DrLink)-NB41 Complex Formation
(§3) NB41 was added to AKT(DrLink)-WT/E17K using a 1.2:1 molar ratio and incubated for 10 minutes at 4° C. Final concentration of 10 mM EDTA was then added to this complex. The complex was purified by gel filtration on Superdex 200 (10/300 GL) column (gel filtration buffer: 20 mM HEPES pH 8.0, 20 mM NaCl, 5 mM DTT). The resulting complex was then concentrated to […] and flash-frozen in liquid nitrogen and stored at −80° C. This complex was then used for crystal formation.
(§4) Crystallization, Data Collection and Structure Determination
(§5) 6 mg/mL AKT1 WT or E17K DrLink-NB41 complex is incubated with 1 mM TMB Compound 13 on ice for 2 hours prior to crystallization trials. Crystals were obtained by the vapor diffusion technique at 20′C after mixing an equal volume of the complex with the well solution containing 17-23% PEG3350, 200 mM Li2SO4, 100 mM Bis Tris Propane pH 6.5-9.0, 10% ethylene glycol. Crystals grew within 3 days. Crystals were cryo protected in mother liquor supplemented with […] and flash cooled in liquid nitrogen for storage and data collection. All diffraction datasets were collected and processed by Helix Biostructures at ESRF beamline TD30B on Sep. 1, 2023. […] The initial structures were determined through molecular replacement with Phaser in CCP4 suite with the structure […] 7APJ as a search model. […]

[3] = molecular target: T3, AKT1 WT (Homo sapiens, UniProt P31749, DEL120-128/E133D/G130S/INS132HT/S129A); assay: Co-crystallization showing covalent complex formation with AKT1 WT; details: AKT1(DrLink)-WT-NB41 complex, electron density
T3 construct: Akt1(DrLink)-WT/E17K were gene synthesized and cloned by Gibson assembly into the pFastBac vector; His8 followed by TEV site (MSHHHHHHHHGSENLYFQS) (N); DrLink (replaced PH-kinase interdomain linker, part of the construct's name); made in house; host or cells: Akt1(DrLink): baculovirus/Sf9; NB41: E. coli Rosetta 2(DE3)pLysS
Procedure: as §2, §3, §4, §5
Target sequence in this assay (P31749 with tags, fused parts or gaps DEL120-128/S129A/G130S/INS132HT/E133D): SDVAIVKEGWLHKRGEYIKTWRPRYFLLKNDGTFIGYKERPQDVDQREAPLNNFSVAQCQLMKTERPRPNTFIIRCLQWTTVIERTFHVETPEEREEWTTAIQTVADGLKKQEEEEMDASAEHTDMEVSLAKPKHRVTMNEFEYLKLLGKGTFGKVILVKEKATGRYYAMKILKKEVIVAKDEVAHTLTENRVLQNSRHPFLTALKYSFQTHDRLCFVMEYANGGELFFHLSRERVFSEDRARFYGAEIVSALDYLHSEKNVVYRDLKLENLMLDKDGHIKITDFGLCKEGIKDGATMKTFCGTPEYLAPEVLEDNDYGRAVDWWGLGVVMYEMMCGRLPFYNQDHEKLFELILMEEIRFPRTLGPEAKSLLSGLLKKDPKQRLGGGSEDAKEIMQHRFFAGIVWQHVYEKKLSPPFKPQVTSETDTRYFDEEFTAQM
Target sequence in this assay (as listed by the source partner): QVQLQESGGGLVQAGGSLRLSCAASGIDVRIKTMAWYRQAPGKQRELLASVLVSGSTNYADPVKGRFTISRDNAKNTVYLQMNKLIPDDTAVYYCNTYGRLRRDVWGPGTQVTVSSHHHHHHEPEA

[4] = molecular target: T4, AKT1 WT (Homo sapiens, UniProt P31749); assay: Live cell AKT1 WT target engagement by NanoBRET competitive probe displacement; type: cell-based; details: HEK293 cells transfected with kinase-NanoLuciferase fusion, 2 h at 37° C.
T4 construct: expressed in transfected cells; host or cells: HEK293
Outline: as §1

[5] = tested on: LAPC4 prostate cancer cells; assay: Antiproliferative effects in LAPC4 cells (CellTiter Glo); type: cell-based; details: Homo sapiens, LAPC4, 72 h, LAPC4 cells (AKT1 E17K allele), read-out: LAPC4 proliferation IC50
Outline: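 Growth inhibition is gauged by intracellular ATP content, measured with CellTiter Glo 72 h after compound addition to 1,000 seeded cells per well. IC50 derives from a Hill equation fit.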

[6] = molecular target: T5, AKT1 E17K (Homo sapiens, UniProt P31749, E17K); assay: Live cell AKT1 E17K target engagement by NanoBRET competitive probe displacement; type: cell-based; details: HEK293 cells transfected with kinase-NanoLuciferase fusion, 2 h at 37° C.
T5 construct: expressed in transfected cells; host or cells: HEK293
Outline: as §1

[7] = molecular target: T6, AKT E17K (Homo sapiens, UniProt P31749, DEL120-128/E133D/E17K/G130S/INS132HT/S129A); assay: Compound 13/AKT E17K co-crystallization complex, crystal structure; type: binding; details: FIG. 2C
T6 construct: Akt1(DrLink)-WT/E17K were gene synthesized and cloned by Gibson assembly into the pFastBac vector; His8 followed by TEV site (MSHHHHHHHHGSENLYFQS) (N); DrLink (replaced PH-kinase interdomain linker, part of the construct's name); made in house; host or cells: Akt1(DrLink): baculovirus/Sf9; NB41: E. coli Rosetta 2(DE3)pLysS

[8] = molecular target: T3, AKT1 WT; assay: Compound 13/AKT1 WT co-crystallization complex, crystal structure; type: binding; details: FIG. 1C
Target sequence in this assay (P31749 with tags, fused parts or gaps DEL120-128/S129A/G130S/INS132HT/E133D): as the sequence (P31749 with tags, fused parts or gaps DEL120-128/S129A/G130S/INS132HT/E133D) above

T4 sequence (P31749 whole entry, the tested form may be a part): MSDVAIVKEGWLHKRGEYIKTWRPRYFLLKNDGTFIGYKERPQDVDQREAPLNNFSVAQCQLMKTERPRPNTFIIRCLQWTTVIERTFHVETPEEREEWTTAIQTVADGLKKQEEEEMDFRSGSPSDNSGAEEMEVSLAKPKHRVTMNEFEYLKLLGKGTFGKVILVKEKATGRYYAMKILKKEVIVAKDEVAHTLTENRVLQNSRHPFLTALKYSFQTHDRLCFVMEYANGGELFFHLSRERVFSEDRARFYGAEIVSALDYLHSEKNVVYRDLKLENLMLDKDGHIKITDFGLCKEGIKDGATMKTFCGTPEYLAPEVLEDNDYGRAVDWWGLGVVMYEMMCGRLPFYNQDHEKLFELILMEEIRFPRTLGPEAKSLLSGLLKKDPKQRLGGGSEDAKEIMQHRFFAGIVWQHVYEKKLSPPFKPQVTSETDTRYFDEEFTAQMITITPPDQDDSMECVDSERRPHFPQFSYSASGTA
T5 sequence (P31749 whole entry E17K, the tested form may be a part): as the sequence (P31749 whole entry, the tested form may be a part) above, with E17K counted along it
T2 sequence (P31749 with tags, fused parts or gaps E17K/DEL120-128/S129A/G130S/INS132HT/E133D): as the sequence (P31749 with tags, fused parts or gaps DEL120-128/S129A/G130S/INS132HT/E133D) above, with E16K counted along it
T6 sequence (P31749 with tags, fused parts or gaps E17K/DEL120-128/S129A/G130S/INS132HT/E133D): as the sequence (P31749 with tags, fused parts or gaps DEL120-128/S129A/G130S/INS132HT/E133D) above, with E16K counted along it
T6 sequence (as listed by the source partner): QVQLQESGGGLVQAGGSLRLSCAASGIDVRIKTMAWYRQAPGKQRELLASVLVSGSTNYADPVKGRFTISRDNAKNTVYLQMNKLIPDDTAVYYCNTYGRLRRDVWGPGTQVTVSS
T1 sequence (P31751 whole entry, the tested form may be a part): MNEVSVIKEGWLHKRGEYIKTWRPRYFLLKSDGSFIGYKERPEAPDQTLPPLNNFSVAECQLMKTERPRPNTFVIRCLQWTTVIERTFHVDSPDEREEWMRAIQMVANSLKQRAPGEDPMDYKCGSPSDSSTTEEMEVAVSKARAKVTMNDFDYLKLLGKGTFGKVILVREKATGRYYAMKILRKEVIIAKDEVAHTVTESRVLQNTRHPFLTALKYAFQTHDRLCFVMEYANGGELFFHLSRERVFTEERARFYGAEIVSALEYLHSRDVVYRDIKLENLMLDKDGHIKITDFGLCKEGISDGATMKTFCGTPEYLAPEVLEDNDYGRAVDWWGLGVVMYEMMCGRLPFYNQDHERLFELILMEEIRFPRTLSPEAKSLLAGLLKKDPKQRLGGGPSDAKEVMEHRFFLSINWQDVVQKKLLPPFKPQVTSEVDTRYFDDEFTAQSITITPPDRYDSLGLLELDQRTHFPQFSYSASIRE

IC50 [1]: 224 nM
covalent bond formation in co-crystal structure [2]: covalent bond formation with C296
covalent bond formation in co-crystal structure [3]: covalent bond formation with C296
IC50 [4]: 17 nM
IC50 [5]: 144 nM
IC50 [6]: 56.1 nM
SMILES: C=CC(=O)N1CCC(N[C@H]2CCc3cc(-n4c(-c5cccnc5N)nc5ccc(-n6cccn6)nc54)ccc32)CC1 [Example 13, 1-(4-{[(1S)-5-[2-(2-aminopyridin-3-yl)-5-(pyrazol-1-yl)imidazo[4,5-b]pyridin-3-yl]-2,3-dihydro-1H-inden-1-yl]amino}piperidin-1-yl)prop-2-en-1-one]
interaction seen in the co-crystal structure (site of covalent attachment) [7]: covalent bond between C296 cysteine residue of AKT E17K and Compound 13
interaction seen in the co-crystal structure (site of covalent attachment) [8]: covalent bond between C296 cysteine residue of AKT1 WT and Compound 13
